From patent US20030103900A1, “Use of disease-associated organisms” (priority 2001, published 2003) come the findings set out here.

This assay concerns non-Hodgkins lymphoma. The experiment in a line: broad spectrum antibiotic cover in a non-Hodgkins lymphoma patient with mixed bacterial pneumonia. The class given is in vivo, human. The conditions noted are these: given together: Penicillin 1 million units three times a day i.m., chloramphenicol 1.25 g three times a day i.m., flagyl 400 mg three times a day orally; following one week. The text has this:
If, on the other hand, a disease-associated organism is found within the body of a patient, which organism is classified as beneficial regarding a targeted disease (i.e., the activity of the organism is either causative or synergistic toward the disease), a therapeutic agent which is antagonistic toward such beneficial organism may be administered to the patient for aiding the patient's immune system in fighting against such causative or synergistic organism. Organisms have often been reported to exist in cancer patients both in tumor biopsies and in overt disease, in the treatment of a non-Hodgkins lymphoma patient suffering from mixed bacterial pneumonia, inventor prescribed broad spectrum antibiotic cover-Penicillin 1 million units three times a day, chloramphenicol 1.25 g three times a day, and flagyl 400 mg three times a day; the first two by intramuscular route and the flagyl orally.
On to `O=C(N[C@H](CO)[C@H](O)c1ccc([N+](=O)[O-])cc1)C(Cl)Cl` [chloramphenicol], for which the “change of cancerous lymph nodes” value was “cancerous lymph nodes shrank and softened”.
With `Cc1ncc([N+](=O)[O-])n1CCO` [flagyl], the “change of cancerous lymph nodes” value was “cancerous lymph nodes shrank and softened”.
Consider Penicillin, for which the “change of cancerous lymph nodes” value is “cancerous lymph nodes shrank and softened”.
